Columns and labels:
[1] = Pharmacokinetics after single intravenous injection; assay type: in vivo; settings: cynomolgus monkeys, 3, 30 or 100 mg/kg intravenously
Experimental: To evaluate the pharmacokinetics of the anti-IGF-IR antibodies, cynomolgus monkeys were injected intravenously with 3, 30 or 100 mg/kg of 2.13.2 antibody in an acetate buffer. Serum was collected from the monkeys at various time points and anti-IGF-IR antibody concentrations in the monkeys were determined for a period of up to ten weeks levels. To quantitate functional serum antibody levels, the extracellular domain of the human IGF-IR (IGF-I-sR, R&D Systems, Catalog # 391GR) was bound to 96-well plates. Monkey serum (diluted between 1:100 and 1:15,000) was added to the assay plates so that each sample would be within the linear range of the standard curve and incubated under conditions in which any anti-IGF-IR antibody would bind to IGF-I-sR. After washing the plates, a labeled anti-human IgG antibody was added to the plates and incubated under conditions in which the anti-human IgG antibody would bind to the anti-IGF-IR antibody. The plates were then washed and developed, and a control standard curve and linear regression fits used to quantitate the amount of anti-IGF-IR antibodies.

[2] = tested on: A431 tumors; assay: Growth inhibition of epidermoid carcinoma cell tumors; assay type: in vivo, nude mice
Experimental: Tumors were induced in nude mice essentially as described in Example IX except that A431 cells (ATCC CRL 1555) were used. A431 cells are human epidermoid carcinoma cells that overexpress EGFR. Mice with established subcutaneous tumors of approximately 250 mm^3 were treated on days 1, 8, 15, 22 and 29 with 500 μg 2.13.2 antibody (i.p.) or were treated once daily for 27 days with 10 mg/kg CP-358,774 given orally (p.o.), either as single agents or in combination, as described in Example IX. CP-358,774 is described in U.S. Pat. No. 5,747,498 and Moyer et al., Cancer Research 57: 4838-4848 (1997), herein incorporated by reference.

[3] = tested on: Colo 205 tumors; assay: Growth inhibition of colorectal cell tumors; assay type: in vivo, nude mice
Experimental: Tumors were induced in nude mice as described in Example IX except that Colo 205 cells (ATCC CCL 222) were used. Colo 205 cells are human colorectal adenocarcinoma cells. Mice with established subcutaneous tumors of approximately 250 mm^3 were treated with various amounts of 2.13.2 antibody (i.p.) or with 100 mg/kg […] (5-FU, i.v.), either as single agents or in combination, as described in Example IX. […] Mice with established Colo 205 tumors were treated on days 1, 8, 15 and 22 with 500 μg 2.13.2 (i.p.), 100 mg/kg 5-FU (i.v.) or a combination thereof.

## 2.13.2: human IgG2κ monoclonal antibody specific for IGF-IR from hybridoma 2.13.2 (ATCC PTA-2788)
[1]
  dose proportionality of serum amounts: dose-proportional
  volume distribution: 74 to 105 mL/kg
[2]; 500 μg i.p. on days 1, 8, 15, 22 and 29 with 10 mg/kg CP-358,774 p.o. daily for 27 days
  effect on effectiveness of CP-358,774: enhances the effectiveness of CP-358,774
[2]; multiple doses, alone or in combination with CP-358,774 (FIG. 16)
  A431 tumor growth: inhibit A431 tumor growth
[3]; 500 μg i.p. on days 1, 8, 15 and 22
  Colo 205 tumor growth: inhibits human colorectal cancer cell growth
[3]; 500 μg i.p. on days 1, 8, 15 and 22 with 100 mg/kg 5-FU i.v.
  effect on effectiveness of 5-FU: enhances the effectiveness of 5-FU
[3]; antibody given once with 100 mg/kg 5-FU i.v.
  effect on effectiveness of 5-FU: enhances the effectiveness of 5-FU
[3]; antibody i.p. given once, single agent
  Colo 205 tumor growth: inhibits human colorectal cancer cell growth

Source: patent publication US7815907B2, “Antibodies to insulin-like growth factor I receptor” (Amgen Fremont Inc., priority 2001, dated 2010)
